According to patent US20200216441A1, “PESTICIDALLY ACTIVE HETEROCYCLIC DERIVATIVES WITH SULFUR CONTAINING SUBSTITUENTS” (SYNGENTA PARTICIPATIONS AG, priority 2017, published 2020):

Assays:
[1] = test system: Myzus persicae (Green Peach Aphid); test: Myzus persicae (Green Peach Aphid). Intrinsic Activity; settings: 120 h
[2] = test system: Spodoptera littoralis (Egyptian Cotton Leaf Worm); test: whole plant or invertebrate; settings: in Gossypium barbadense, foliar, 72 h, read-out: control (mortality, anti-feeding effect, growth inhibition)
[3] = test system: Diabrotica Balteata (Corn Root Worm); test: Diabrotica balteata (Corn Root Worm); settings: in Zea mays, 96 h, read-out: effect in at least one of the two categories (mortality or growth inhibition)
[4] = test system: Myzus persicae (Green Peach Aphid); test: whole plant or invertebrate; settings: foliar, 144 h
[5] = test system: Euschistus heros (Neotropical Brown Stink Bug); test: whole plant or invertebrate; type: in vivo; settings: 120 h, application rate of 200 ppm, N2 nymphs on sprayed soybean leaves, 5 days after infestation, read-out: effect in at least one of the two categories (mortality or growth inhibition)
[6] = test system: Plutella xylostella (Diamond Back Moth); test: whole plant or invertebrate; type: in vivo; settings: 120 h, application rate of 200 ppm, L2 larvae on treated artificial diet, 5 days after infestation, read-out: effect in at least one of the two categories (mortality or growth inhibition)
[7] = test system: Bemisia tabaci (Cotton White Fly); settings: in Gossypium hirsutum, foliar, 144 h
[8] = test system: Tetranychus urticae (Two-Spotted Spider Mite); settings: foliar, 192 h
[9] = test system: Spodoptera littoralis (Egyptian Cotton Leaf Worm); test: Spodoptera littoralis (Egyptian Cotton Leaf Worm), uptake by lettuce roots from agar; type: in vivo; settings: 144 h, test rate of 12.5 ppm, compound in agar absorbed by lettuce roots, 6 days after infestation, read-out: effect in at least one of the three categories (mortality, anti-feeding, or growth inhibition)
Source text: Example B10: Spodoptera littoralis (Egyptian Cotton Leaf Worm)
Test compounds were applied by pipette from 10′000 ppm DMSO stock solutions into 24-well plates and mixed with agar. Lettuce seeds were placed onto the agar and the multi well plate was closed by another plate which contained also agar. After 7 days the compound was absorbed by the roots and the lettuce grew into the lid plate. The lettuce leaves were then cut off into the lid plate. Spodoptera eggs were pipetted through a plastic stencil onto a humid gel blotting paper and the lid plate was closed with it.

[10] = test system: Frankliniella occidentalis (Western Flower Thrips); settings: foliar, 168 h
[11] = test system: Myzus persicae (Green Peach Aphid); test: whole plant or invertebrate; type: in vivo; settings: 144 h, test rate of 24 ppm, systemic, roots of infested pea seedlings in test solution, 6 days

CCSc1cc(OC(C)(C)C#N)cnc1-c1nc2cc(C(F)(F)F)ncc2n1C [Compound P19, 2-[[5-ethylsulfanyl-6-[3-methyl-6-(trifluoromethyl)imidazo[4,5-c]pyridin-2-yl]-3-pyridyl]oxy]-2-methyl-propanenitrile]
≥ 80%: mortality at 12 ppm [1] | mortality at 200 ppm [2] | mortality at 200 ppm [3] | mortality at 200 ppm [4] | percent effect (mortality or growth inhibition) at 200 ppm [5] | percent effect (mortality or growth inhibition) at 200 ppm [6] | mortality at 200 ppm [7] | mortality at 200 ppm [8]

CCS(=O)(=O)c1cc(ON=C(C)C)cnc1-c1nc2cc(C(F)(F)F)ncc2n1C [Compound P97, N-[[5-ethylsulfonyl-6-[3-methyl-6-(trifluoromethyl)imidazo[4,5-c]pyridin-2-yl]-3-pyridyl]oxy]propan-2-imine]
≥ 80%: percent effect (mortality, anti-feeding or growth inhibition) at 12.5 ppm [9] | mortality at 200 ppm [2] | mortality at 200 ppm [3] | mortality at 200 ppm [4] | percent effect (mortality or growth inhibition) at 200 ppm [5] | percent effect (mortality or growth inhibition) at 200 ppm [6] | mortality at 200 ppm [7]

CCS(=O)(=O)c1cc(OC(F)(F)Br)cnc1-c1nc2cc(C(F)(F)F)ncc2n1C [Compound P99, 2-[5-[bromo(difluoro)methoxy]-3-ethylsulfonyl-2-pyridyl]-3-methyl-6-(trifluoromethyl)imidazo[4,5-c]pyridine]
≥ 80%: percent effect (mortality, anti-feeding or growth inhibition) at 12.5 ppm [9] | mortality at 200 ppm [2] | mortality at 200 ppm [3] | percent effect (mortality or growth inhibition) at 200 ppm [5] | percent effect (mortality or growth inhibition) at 200 ppm [6] | mortality at 200 ppm [8]

CCS(=O)(=O)c1cc(OC(C)(C)C#N)cnc1-c1nc2cc(C(F)(F)F)ncc2n1C [Compound P18, 2-[[5-ethylsulfonyl-6-[3-methyl-6-(trifluoromethyl)imidazo[4,5-c]pyridin-2-yl]-3-pyridyl]oxy]-2-methyl-propanenitrile]
≥ 80%: percent effect (mortality, anti-feeding or growth inhibition) at 12.5 ppm [9] | mortality at 200 ppm [2] | mortality at 200 ppm [3] | mortality at 200 ppm [10] | mortality at 200 ppm [4] | percent effect (mortality or growth inhibition) at 200 ppm [5] | percent effect (mortality or growth inhibition) at 200 ppm [6] | mortality at 200 ppm [7] | mortality at 24 ppm [11] | mortality at 200 ppm [8]

CCS(=O)(=O)c1cc(OC(C)C)cnc1-c1nc2cc(C(F)(F)F)ncc2n1C [Compound P28, 2-(3-ethylsulfonyl-5-isopropoxy-2-pyridyl)-3-methyl-6-(trifluoromethyl)imidazo[4,5-c]pyridine]
≥ 80%: percent effect (mortality, anti-feeding or growth inhibition) at 12.5 ppm [9] | mortality at 200 ppm [2] | mortality at 200 ppm [3] | mortality at 200 ppm [4] | percent effect (mortality or growth inhibition) at 200 ppm [5] | percent effect (mortality or growth inhibition) at 200 ppm [6] | mortality at 200 ppm [7] | mortality at 24 ppm [11]
